Calls of active or inactive are those of the source. The rule behind the calls is not given here. Non-standard residues stand in square brackets, D forms with d. Residues, ends and D or L forms follow the SMILES beside them. ξ: configuration not given here. ξY = NC(Cc1ccc(O)cc1)C(=O)O; ξR = N=C(N)NCCCC(N)C(=O)O; ξN = NC(=O)CC(N)C(=O)O; Nleu = CC(C)CNCC(=O)O; ξI = CCC(C)C(N)C(=O)O; Nlys = NCCCCNCC(=O)O; ξP = O=C(O)C1CCCN1
Legend:
Acinetobacter baumannii = assay: Antimicrobial activity against Acinetobacter baumannii ATCC 19606 incubated for 16 to 20 hrs in full muller hinton medium by broth microdilution method; type: functional; details: time 16-20 hrs
Pseudomonas aeruginosa [1] = assay: Antimicrobial activity against Pseudomonas aeruginosa PAO1 incubated for 16 to 20 hrs in full muller hinton medium by broth microdilution method; type: functional; details: time 16-20 hrs
Staphylococcus aureus [2] = assay: Antimicrobial activity against methicillin-resistant Staphylococcus aureus COL incubated for 16 to 20 hrs in full muller hinton medium by broth microdilution method; type: functional; details: time 16-20 hrs
[3] = Hemolytic activity in human RBC incubated for 4 hrs; type: toxicity, cell-based; details: erythrocyte
Staphylococcus aureus [4] = assay: Antimicrobial activity against methicillin-resistant Staphylococcus aureus COL incubated for 16 to 20 hrs in 12.5 % muller hinton medium by broth microdilution method; type: functional; details: time 16-20 hrs
rRNA = assay: Binding affinity to [gamma32 P-ATP] labeled Escherichia coli MG1655 23S ribosomal RNA (5-CCCTTGGGACCTACTTC-3') at U2506 position assessed as increase in band intensity at 1 uM incubated for 2.5 hrs in full muller hinton medium by CMCT based gel electrophoresis; type: nucleic-acid assay
Klebsiella pneumoniae = assay: Antimicrobial activity against Klebsiella pneumoniae NCTC 418 incubated for 16 to 20 hrs in full muller hinton medium by broth microdilution method; type: functional; details: time 16-20 hrs
Pseudomonas aeruginosa [5] = assay: Antimicrobial activity against Pseudomonas aeruginosa PAO1 incubated for 16 to 20 hrs in 12.5 % muller hinton medium by broth microdilution method; type: functional; details: time 16-20 hrs

| SMILES | MIC (Acinetobacter baumannii) [mg/L] | MIC (Pseudomonas aeruginosa [1]) [mg/L] | MIC (Staphylococcus aureus [2]) [mg/L] | MHC [3] [µg/mL] | MIC (Staphylococcus aureus [4]) [mg/L] | Activity (rRNA) | MIC (Klebsiella pneumoniae) [mg/L] | MIC (Pseudomonas aeruginosa [5]) [mg/L] |
| --- | --- | --- | --- | --- | --- | --- | --- | --- |
| CC[C@H](C)[C@H](NC(=O)[C@H](CCCNC(=N)N)NC(=O)[C@H](CCCNC(=N)N)NC(=O)[C@@H]1CCCN1C(=O)[C@@H]1CCCN1C(=O)[C@H](CCCNC(=N)N)NC(=O)[C@@H]1CCCN1C(=O)[C@H](CCCNC(=N)N)NC(=O)[C@@H]1CCCN1C(=O)[C@H](CC(C)C)NC(=O)[C@@H](Cc1ccc(O)cc1)NC(=O)[C@@H]1CCCN1C(=O)[C@@H]1CCCN1C(=O)[C@H](CCCCN)NC(=O)[C@H](CC(=O)O)NC(=O)[C@@H](N)C(C)C)C(=O)N[C@@H](Cc1ccc(O)cc1)C(=O)N[C@@H](CC(N)=O)C(=O)N[C@@H](CCCNC(=N)N)C(N)=O (H-VDKPP[dY]LPRPRPPRRIYNR-NH2) | > 64 | > 64 | > 64 | > 1000 | – | – | – | – |
| CCC(C)C(NC(=O)C(CCCNC(=N)N)NC(=O)C(CCCNC(=N)N)NC(=O)C1CCCN1C(=O)C1CCCN1C(=O)C(CCCNC(=N)N)NC(=O)C1CCCN1C(=O)C(CCCNC(=N)N)NC(=O)C1CCCN1C(=O)[C@H](CC(C)C)NC(=O)[C@H](Cc1ccc(O)cc1)NC(=O)[C@@H]1CCCN1C(=O)[C@@H]1CCCN1C(=O)[C@H](CCCCN)NC(=O)[C@H](CC(=O)O)NC(=O)[C@@H](N)C(C)C)C(=O)NC(Cc1ccc(O)cc1)C(=O)NC(CC(N)=O)C(=O)NC(CCCNC(=N)N)C(N)=O (stereo partly specified) (H-VDKPPYL[ξP][ξR][ξP][ξR][ξP][ξP][ξR][ξR][ξI][ξY][ξN][ξR]-NH2) | – | > 64 | > 64 | > 1000 | – | – | – | – |
| CC[C@H](C)[C@H](NC(=O)[C@H](CCCNC(=N)N)NC(=O)[C@H](CCCNC(=N)N)NC(=O)[C@@H]1CCCN1C(=O)[C@H]1CCCN1C(=O)[C@H](CCCNC(=N)N)NC(=O)[C@@H]1CCCN1C(=O)[C@H](CCCNC(=N)N)NC(=O)[C@@H]1CCCN1C(=O)[C@H](CC(C)C)NC(=O)[C@H](Cc1ccc(O)cc1)NC(=O)[C@@H]1CCCN1C(=O)[C@@H]1CCCN1C(=O)[C@H](CCCCN)NC(=O)[C@H](CC(=O)O)NC(=O)[C@@H](N)C(C)C)C(=O)N[C@@H](Cc1ccc(O)cc1)C(=O)N[C@@H](CC(N)=O)C(=O)N[C@@H](CCCNC(=N)N)C(N)=O (H-VDKPPYLPRPR[dP]PRRIYNR-NH2) | – | > 64 | > 64 | > 1000 | – | – | – | – |
| CC[C@@H](C)[C@@H](NC(=O)[C@@H](CCCNC(=N)N)NC(=O)[C@@H](CCCNC(=N)N)NC(=O)[C@H]1CCCN1C(=O)[C@H]1CCCN1C(=O)[C@@H](CCCNC(=N)N)NC(=O)[C@@H]1CCCN1C(=O)[C@H](CCCNC(=N)N)NC(=O)[C@@H]1CCCN1C(=O)[C@H](CC(C)C)NC(=O)[C@H](Cc1ccc(O)cc1)NC(=O)[C@@H]1CCCN1C(=O)[C@@H]1CCCN1C(=O)[C@H](CCCCN)NC(=O)[C@H](CC(=O)O)NC(=O)[C@@H](N)C(C)C)C(=O)N[C@H](Cc1ccc(O)cc1)C(=O)N[C@H](CC(N)=O)C(=O)N[C@H](CCCNC(=N)N)C(N)=O (H-VDKPPYLPRP[dR][dP][dP][dR][dR][dI][dY][dN][dR]-NH2) | – | – | > 64 | > 1000 | > 64 | Active | – | – |
| CC[C@@H](C)[C@@H](NC(=O)[C@@H](CCCNC(=N)N)NC(=O)[C@@H](CCCNC(=N)N)NC(=O)[C@H]1CCCN1C(=O)[C@H]1CCCN1C(=O)[C@H](CCCNC(=N)N)NC(=O)[C@@H]1CCCN1C(=O)[C@H](CCCNC(=N)N)NC(=O)[C@@H]1CCCN1C(=O)[C@H](CC(C)C)NC(=O)[C@H](Cc1ccc(O)cc1)NC(=O)[C@@H]1CCCN1C(=O)[C@@H]1CCCN1C(=O)[C@H](CCCCN)NC(=O)[C@H](CC(=O)O)NC(=O)[C@@H](N)C(C)C)C(=O)N[C@H](Cc1ccc(O)cc1)C(=O)N[C@H](CC(N)=O)C(=O)N[C@H](CCCNC(=N)N)C(N)=O (H-VDKPPYLPRPR[dP][dP][dR][dR][dI][dY][dN][dR]-NH2) | – | > 64 | > 64 | > 1000 | – | Active | – | – |
| CC[C@H](C)[C@H](NC(=O)[C@H](CCCNC(=N)N)NC(=O)[C@H](CCCNC(=N)N)NC(=O)[C@@H]1CCCN1C(=O)[C@@H]1CCCN1C(=O)[C@H](CCCNC(=N)N)NC(=O)[C@@H]1CCCN1C(=O)[C@@H](CCCNC(=N)N)NC(=O)[C@@H]1CCCN1C(=O)[C@H](CC(C)C)NC(=O)[C@H](Cc1ccc(O)cc1)NC(=O)[C@@H]1CCCN1C(=O)[C@@H]1CCCN1C(=O)[C@H](CCCCN)NC(=O)[C@H](CC(=O)O)NC(=O)[C@@H](N)C(C)C)C(=O)N[C@@H](Cc1ccc(O)cc1)C(=O)N[C@@H](CC(N)=O)C(=O)N[C@@H](CCCNC(=N)N)C(N)=O (H-VDKPPYLP[dR]PRPPRRIYNR-NH2) | > 64 | > 64 | > 64 | > 1000 | > 64 | – | – | – |
| CC[C@H](C)[C@H](NC(=O)[C@H](CCCNC(=N)N)NC(=O)[C@H](CCCNC(=N)N)NC(=O)[C@@H]1CCCN1C(=O)[C@@H]1CCCN1C(=O)[C@H](CCCNC(=N)N)NC(=O)[C@@H]1CCCN1C(=O)[C@H](CCCNC(=N)N)NC(=O)[C@H]1CCCN1C(=O)[C@H](CC(C)C)NC(=O)[C@H](Cc1ccc(O)cc1)NC(=O)[C@@H]1CCCN1C(=O)[C@@H]1CCCN1C(=O)[C@H](CCCCN)NC(=O)[C@H](CC(=O)O)NC(=O)[C@@H](N)C(C)C)C(=O)N[C@@H](Cc1ccc(O)cc1)C(=O)N[C@@H](CC(N)=O)C(=O)N[C@@H](CCCNC(=N)N)C(N)=O (H-VDKPPYL[dP]RPRPPRRIYNR-NH2) | > 64 | > 64 | > 64 | > 1000 | – | – | > 64 | – |
| CCC(C)C(NC(=O)C(CCCNC(=N)N)NC(=O)C(CCCNC(=N)N)NC(=O)C1CCCN1C(=O)C1CCCN1C(=O)C(CCCNC(=N)N)NC(=O)C1CCCN1C(=O)C(CCCNC(=N)N)NC(=O)[C@@H]1CCCN1C(=O)[C@H](CC(C)C)NC(=O)[C@H](Cc1ccc(O)cc1)NC(=O)[C@@H]1CCCN1C(=O)[C@@H]1CCCN1C(=O)[C@H](CCCCN)NC(=O)[C@H](CC(=O)O)NC(=O)[C@@H](N)C(C)C)C(=O)NC(Cc1ccc(O)cc1)C(=O)NC(CC(N)=O)C(=O)NC(CCCNC(=N)N)C(N)=O (stereo partly specified) (H-VDKPPYLP[ξR][ξP][ξR][ξP][ξP][ξR][ξR][ξI][ξY][ξN][ξR]-NH2) | – | > 64 | > 64 | > 1000 | – | – | – | – |
| CC[C@H](C)[C@H](NC(=O)[C@H](CCCNC(=N)N)NC(=O)[C@H](CCCNC(=N)N)NC(=O)[C@@H]1CCCN1C(=O)[C@@H]1CCCN1C(=O)[C@H](CCCNC(=N)N)NC(=O)[C@H]1CCCN1C(=O)[C@H](CCCNC(=N)N)NC(=O)[C@@H]1CCCN1C(=O)[C@H](CC(C)C)NC(=O)[C@H](Cc1ccc(O)cc1)NC(=O)[C@@H]1CCCN1C(=O)[C@@H]1CCCN1C(=O)[C@H](CCCCN)NC(=O)[C@H](CC(=O)O)NC(=O)[C@@H](N)C(C)C)C(=O)N[C@@H](Cc1ccc(O)cc1)C(=O)N[C@@H](CC(N)=O)C(=O)N[C@@H](CCCNC(=N)N)C(N)=O (H-VDKPPYLPR[dP]RPPRRIYNR-NH2) | – | > 64 | > 64 | > 1000 | > 64 | – | – | – |
| CC[C@H](C)[C@H](NC(=O)[C@H](CCCNC(=N)N)NC(=O)[C@H](CCCNC(=N)N)NC(=O)[C@@H]1CCCN1C(=O)[C@@H]1CCCN1C(=O)[C@H](CCCNC(=N)N)NC(=O)[C@@H]1CCCN1C(=O)[C@H](CCCNC(=N)N)NC(=O)[C@@H]1CCCN1C(=O)[C@H](CC(C)C)NC(=O)[C@H](Cc1ccc(O)cc1)NC(=O)[C@@H]1CCCN1C(=O)[C@H]1CCCN1C(=O)[C@H](CCCCN)NC(=O)[C@H](CC(=O)O)NC(=O)[C@@H](N)C(C)C)C(=O)N[C@@H](Cc1ccc(O)cc1)C(=O)N[C@@H](CC(N)=O)C(=O)N[C@@H](CCCNC(=N)N)C(N)=O (H-VDK[dP]PYLPRPRPPRRIYNR-NH2) | – | > 64 | > 64 | > 1000 | – | – | – | > 16 |
| CC[C@H](C)[C@H](NC(=O)[C@H](CCCNC(=N)N)NC(=O)[C@H](CCCNC(=N)N)NC(=O)[C@@H]1CCCN1C(=O)[C@@H]1CCCN1C(=O)[C@@H](CCCNC(=N)N)NC(=O)[C@@H]1CCCN1C(=O)[C@H](CCCNC(=N)N)NC(=O)[C@@H]1CCCN1C(=O)[C@H](CC(C)C)NC(=O)[C@H](Cc1ccc(O)cc1)NC(=O)[C@@H]1CCCN1C(=O)[C@@H]1CCCN1C(=O)[C@H](CCCCN)NC(=O)[C@H](CC(=O)O)NC(=O)[C@@H](N)C(C)C)C(=O)N[C@@H](Cc1ccc(O)cc1)C(=O)N[C@@H](CC(N)=O)C(=O)N[C@@H](CCCNC(=N)N)C(N)=O (H-VDKPPYLPRP[dR]PPRRIYNR-NH2) | – | > 64 | > 64 | > 1000 | > 64 | – | – | – |
| CC(C)C[C@H](NC(=O)CN(CC(C)C)C(=O)[C@H](CC(C)C)NC(=O)CN(CCCCN)C(=O)[C@H](CC(C)C)NC(=O)CN(CC(C)C)C(=O)[C@H](CCCCN)NC(=O)CN(CC(C)C)C(=O)[C@H](CC(C)C)NC(=O)CN(CCCCN)C(=O)[C@@H](N)CCCCN)C(N)=O (H-K[Nlys]L[Nleu]K[Nleu]L[Nlys]L[Nleu]L-NH2) | – | – | – | > 2000 | – | – | – | – |
| CCC(C)C(NC(=O)C(CCCNC(=N)N)NC(=O)C(CCCNC(=N)N)NC(=O)C1CCCN1C(=O)C1CCCN1C(=O)C(CCCNC(=N)N)NC(=O)C1CCCN1C(=O)[C@H](CCCNC(=N)N)NC(=O)[C@@H]1CCCN1C(=O)[C@H](CC(C)C)NC(=O)[C@H](Cc1ccc(O)cc1)NC(=O)[C@@H]1CCCN1C(=O)[C@@H]1CCCN1C(=O)[C@H](CCCCN)NC(=O)[C@H](CC(=O)O)NC(=O)[C@@H](N)C(C)C)C(=O)NC(Cc1ccc(O)cc1)C(=O)NC(CC(N)=O)C(=O)NC(CCCNC(=N)N)C(N)=O (stereo partly specified) (H-VDKPPYLPR[ξP][ξR][ξP][ξP][ξR][ξR][ξI][ξY][ξN][ξR]-NH2) | – | – | > 64 | > 1000 | – | – | – | – |
